Read-outs that look alike come from different tables or passages of the source.
Columns and labels:
Format in all cases: cell-based
[1] = target: T1, human muscarinic M2 receptor (Homo sapiens, UniProt P08172); test: Alphascreen Surefire phospho-ERK1/2 functional assay, M2; conditions: for Emax: CHO
T1 sequence (P08172 1-466): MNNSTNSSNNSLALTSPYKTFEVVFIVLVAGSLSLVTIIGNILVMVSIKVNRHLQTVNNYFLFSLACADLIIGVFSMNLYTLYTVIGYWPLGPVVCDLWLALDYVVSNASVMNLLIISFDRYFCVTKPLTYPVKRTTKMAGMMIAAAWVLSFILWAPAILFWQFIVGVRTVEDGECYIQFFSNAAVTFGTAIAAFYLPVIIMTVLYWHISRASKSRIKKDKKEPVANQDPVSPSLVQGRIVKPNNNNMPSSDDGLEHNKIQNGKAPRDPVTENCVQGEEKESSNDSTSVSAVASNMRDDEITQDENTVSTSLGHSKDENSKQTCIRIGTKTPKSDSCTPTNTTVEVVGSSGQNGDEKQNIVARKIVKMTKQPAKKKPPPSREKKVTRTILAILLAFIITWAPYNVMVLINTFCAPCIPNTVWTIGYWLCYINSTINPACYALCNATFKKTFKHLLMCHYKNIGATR
Protocol: (§1) ERK1/2 phosphorylation is a downstream consequence of both Gq/11 and Gi/o protein coupled receptor activation, making it highly suitable for the assessment of M1, M3 (Gq/11 coupled) and M2, M4 receptors (Gi/o coupled), rather than using different assay formats for different receptor subtypes. CHO cells stably expressing the human muscarinic M1, M2, M3 or M4 receptor were plated (25K/well) onto 96-well tissue culture plates in MEM-alpha+10% dialysed FBS. Once adhered, cells were serum-starved overnight. Agonist stimulation was performed by the addition of 5 μL agonist to the cells for 5 min (37° C.). Media was removed and 50 μL of lysis buffer added. After 15 min, a 4 μL sample was transferred to 384-well plate and 7 μL of detection mixture added. […]

[2] = target: T2, human muscarinic M1 receptor (Homo sapiens, UniProt P11229); test: Alphascreen Surefire phospho-ERK1/2 functional assay, M1; conditions: for Emax: CHO, read-out: % Emax cf. ACh (M1), CHO cells stably expressing human M1; for Emax / % Emax cf. ACh (M1): Emax relative to ACh; for EC50 / pEC50 M1: agonist 5 min, 37° C.
T2 sequence (P11229 1-460): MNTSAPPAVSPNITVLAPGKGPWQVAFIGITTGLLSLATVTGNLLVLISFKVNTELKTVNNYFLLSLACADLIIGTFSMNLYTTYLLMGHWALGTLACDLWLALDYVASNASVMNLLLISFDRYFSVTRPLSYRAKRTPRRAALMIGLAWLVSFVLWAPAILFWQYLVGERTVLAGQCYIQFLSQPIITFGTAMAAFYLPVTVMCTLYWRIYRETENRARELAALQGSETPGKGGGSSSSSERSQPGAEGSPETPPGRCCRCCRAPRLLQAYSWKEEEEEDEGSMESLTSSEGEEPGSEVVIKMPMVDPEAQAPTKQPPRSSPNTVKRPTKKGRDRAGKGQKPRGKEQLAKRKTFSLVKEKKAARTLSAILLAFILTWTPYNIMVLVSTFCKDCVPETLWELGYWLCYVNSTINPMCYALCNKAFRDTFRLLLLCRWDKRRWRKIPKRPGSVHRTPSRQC
Protocol: as §1

[3] = target: T3, human muscarinic M3 receptor (Homo sapiens, UniProt P20309); test: Alphascreen Surefire phospho-ERK1/2 functional assay, M3; conditions: for Emax: CHO
T3 construct: expressed in transfected cells
T3 sequence (P20309 whole entry): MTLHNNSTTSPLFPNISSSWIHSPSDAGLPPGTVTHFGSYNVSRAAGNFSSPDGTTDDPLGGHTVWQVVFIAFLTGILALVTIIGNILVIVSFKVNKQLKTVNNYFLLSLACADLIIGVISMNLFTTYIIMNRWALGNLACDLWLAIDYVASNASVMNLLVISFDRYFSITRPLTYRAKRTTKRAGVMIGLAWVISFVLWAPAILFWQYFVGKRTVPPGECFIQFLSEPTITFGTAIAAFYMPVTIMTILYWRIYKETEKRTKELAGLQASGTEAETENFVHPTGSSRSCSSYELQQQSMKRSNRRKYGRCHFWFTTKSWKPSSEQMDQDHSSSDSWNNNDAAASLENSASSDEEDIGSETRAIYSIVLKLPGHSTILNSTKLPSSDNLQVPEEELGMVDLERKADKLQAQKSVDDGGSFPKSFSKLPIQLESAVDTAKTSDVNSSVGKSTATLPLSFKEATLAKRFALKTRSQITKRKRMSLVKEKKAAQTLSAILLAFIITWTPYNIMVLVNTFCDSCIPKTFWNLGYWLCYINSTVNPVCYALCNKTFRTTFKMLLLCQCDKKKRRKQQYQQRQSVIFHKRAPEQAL
Protocol: as §1

[4] = target: T4, human muscarinic M4 receptor (Homo sapiens, UniProt P08173); test: Alphascreen Surefire phospho-ERK1/2 functional assay, M4; conditions: for EC50 / % Emax cf. ACh (M4) / pEC50 M4: CHO cells stably expressing human M4; for EC50 / pEC50 M4: agonist 5 min, 37° C.; for EC50: read-out: pEC50 M4 (converted); for Emax: CHO, read-out: % Emax cf. ACh (M4), CHO cells stably expressing human M4; for Emax / % Emax cf. ACh (M4): Emax relative to ACh
T4 construct: expressed in transfected cells
T4 sequence (P08173 1-479): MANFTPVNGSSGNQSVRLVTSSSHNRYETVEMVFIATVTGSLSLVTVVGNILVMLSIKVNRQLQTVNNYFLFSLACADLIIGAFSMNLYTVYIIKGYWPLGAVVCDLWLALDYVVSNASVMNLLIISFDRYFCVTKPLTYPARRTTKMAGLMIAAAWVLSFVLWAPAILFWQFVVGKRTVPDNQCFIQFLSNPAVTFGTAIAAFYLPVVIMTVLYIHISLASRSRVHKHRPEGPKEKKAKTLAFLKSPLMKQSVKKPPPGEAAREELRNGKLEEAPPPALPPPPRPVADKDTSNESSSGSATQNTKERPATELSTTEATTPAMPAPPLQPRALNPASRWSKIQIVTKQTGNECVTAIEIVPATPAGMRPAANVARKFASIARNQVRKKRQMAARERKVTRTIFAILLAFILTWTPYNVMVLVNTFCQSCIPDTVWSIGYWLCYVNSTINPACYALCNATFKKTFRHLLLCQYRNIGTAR
Protocol: as §1

[5] = pEC50 M1, CHO cells stably expressing human M1
[6] = CHO cells stably expressing human M2, agonist 5 min, 37° C., read-out: pEC50 M2 (converted)
[7] = read-out: % Emax cf. ACh (M2), CHO cells stably expressing human M2, Emax relative to ACh
[8] = CHO cells stably expressing human M1
[9] = CHO cells stably expressing human M1, read-out: pEC50 M1 (converted)
[10] = CHO cells stably expressing human M3, agonist 5 min, 37° C., read-out: pEC50 M3 (converted)
[11] = read-out: % Emax cf. ACh (M3), CHO cells stably expressing human M3, Emax relative to ACh
[12] = CHO cells stably expressing human M2, Emax relative to ACh
[13] = CHO cells stably expressing human M2, agonist 5 min, 37° C.
[14] = CHO cells stably expressing human M3, Emax relative to ACh
[15] = CHO cells stably expressing human M3, agonist 5 min, 37° C.

Compound | EC50 [4] | Emax [4] | EC50 [1, 6] | Emax [1, 7] | % Emax cf. ACh (M1) [2, 8] | EC50 [2, 9] | EC50 [3, 10] | Emax [3, 11] | % Emax cf. ACh (M4) [4] | % Emax cf. ACh (M2) [1, 12] | pEC50 M2 [1, 13] | pEC50 M1 [2, 8] | % Emax cf. ACh (M3) [3, 14] | pEC50 M3 [3, 15] | pEC50 M4 [4] | Emax [2] | also measured
Cc1noc(N2CCCC(N3CCC4(CC3)C(=O)Nc3ccccc34)CC2)n1 (single isomer, unassigned) [10-6 Isomer 1] | 77.6 nM | 77% |  |  |  |  |  |  |  |  |  |  |  |  |  | 76% | EC50 [1]: > 20000 nM; Emax ([1]; read-out: % Emax cf. ACh (M2)): 60%; EC50 [2, 5]: 661 nM; EC50 [3]: > 20000 nM; Emax ([3]; read-out: % Emax cf. ACh (M3)): 4%
Cc1noc(N2CCCC(N3CCC(N4C[C@H](F)C[C@@H]4CO)CC3)CC2)n1 (single isomer, unassigned) [10-7 Isomer 1] | 105 nM | 89% | > 20000 nM | 15% | (44) % | 3720 nM | > 20000 nM | 2% |  |  |  |  |  |  |  |  | 
Cc1noc(N2CC3CC(N4CCC5(CC4)CNC(=O)C5)CC2C3)n1 (single isomer, unassigned) [11-2 Isomer 2] | > 20000 nM | 15% | > 20000 nM | 8% |  | 9.55 nM | > 20000 nM | 5% |  |  |  |  |  |  |  | 67% | 
Cc1noc(N2CC3CC(N4CCC5(CC4)CNC(=O)O5)CC2C3)n1 (single isomer, unassigned) [11-3 Isomer 2] | > 20000 nM | 11% | > 20000 nM | 21% |  | 70.8 nM | > 20000 nM | 22% |  |  |  |  |  |  |  | 65% | 
Cc1noc(N2CC3CCC2CC3N2CCC3(CC2)CNC(=O)C3)n1 (single isomer, unassigned) [12-1 Isomer 2] | 117 nM |  | > 20000 nM | 6% | (106) % | 32.4 nM | > 20000 nM | 2% | (30) % |  |  |  |  |  |  |  | 
Cc1noc(N2CC3CCC2CC3N2CCC3(CC2)CNC(=O)O3)n1 (single isomer, unassigned) [12-2 Isomer 2] | > 20000 nM | 18% | > 20000 nM | 14% |  | 398 nM | > 20000 nM | 1% |  |  |  |  |  |  |  | 80% | 
O=C1CC2(CCN(C3CC4CCC(C3)N4c3nc(C(F)(F)F)no3)CC2)CN1 (single isomer, unassigned) [12-3 Isomer 1] | > 20000 nM | 14% |  |  |  |  |  |  |  |  |  |  |  |  |  | 67% | EC50 [1]: > 20000 nM; Emax ([1]; read-out: % Emax cf. ACh (M2)): 19%; EC50 [2, 5]: 31.6 nM; EC50 [3]: > 20000 nM; Emax ([3]; read-out: % Emax cf. ACh (M3)): 31%
CCC1(NC(=O)C2CCN(C3CC4CCC(C3)N4c3nc(C)no3)CC2)CCC1 (single isomer, unassigned) [12-8 Isomer 2] | 933 nM | 109% | 2450 nM |  |  | 135 nM | > 20000 nM |  |  |  |  |  |  |  |  | 104% | Emax ([1]; read-out: % Emax cf. ACh (M2)): 33%; Emax ([3]; read-out: % Emax cf. ACh (M3)): 3%
CC1(NC(=O)C2CCN(C3CC4CCC(C3)N4c3nc(C(F)(F)F)no3)CC2)CCC1 (single isomer, unassigned) [12-14 Isomer 2] | 331 nM |  |  |  | (115) % |  |  |  | (40) % |  |  |  |  |  |  |  | EC50 [1]: > 20000 nM; Emax ([1]; read-out: % Emax cf. ACh (M2)): 25%; EC50 [2, 5]: 18.6 nM; EC50 [3]: > 20000 nM; Emax ([3]; read-out: % Emax cf. ACh (M3)): 9%
O=C1CC2(CCN(C3CC4CCC(C3)N4c3nc(C(F)(F)F)no3)CC2)CN1 (single isomer, unassigned; isomer 2) [12-3 Isomer 2] |  |  |  |  | (103) % |  |  |  | (23) % | (14) % | <4.70 | 8.30 | (70) % | <4.70 | 6.70 |  | 

Second part, led by results:

EC50 [4] | Emax [4] | EC50 [1, 6] | Emax [1, 7] | % Emax cf. ACh (M1) [2, 8] | EC50 [2, 9] | EC50 [3, 10] | Emax [3, 11] | % Emax cf. ACh (M4) [4] | % Emax cf. ACh (M2) [1, 12] | pEC50 M2 [1, 13] | pEC50 M1 [2, 8] | % Emax cf. ACh (M3) [3, 14] | pEC50 M3 [3, 15] | pEC50 M4 [4] | Compound | Emax [2] | also measured
 |  |  |  | (87) % |  |  |  | (62) % | (27) % | 5.23 | 7.00 | (15) % | <4.70 | 6.68 | CC(=O)N(CC1(C)CCC1)C1CCN(C2CC3CCC(C2)N3c2nc(C)no2)CC1 (single isomer, unassigned; isomer 1) [12-18 Isomer 1] |  | 
 |  |  |  | (102) % |  |  |  | (22) % | (31) % | <4.70 | 6.70 | (50) % | <4.70 | <4.70 | CCN(CC)C(=O)[C@H]1[C@@H]2CN(C3CC4CCC(C3)N4c3nc(C)no3)C[C@@H]21 (single isomer, unassigned; isomer 1) [12-25 Isomer 1] |  | 
 |  |  |  | (92) % |  |  |  | (92) % | (90) % | 6.59 | 8.63 | (48) % | 5.72 | 7.83 | CC(=O)N(CC1(C)CCC1)C1CCN(C2CC3CCC(C2)N3c2nc(C)no2)CC1 (single isomer, unassigned; isomer 2) [12-18 Isomer 2] |  | 
 |  |  |  | (102) % |  |  |  | (108) % | (81) % | 5.68 | 8.06 | (52) % | 4.90 | 6.23 | Cc1noc(N2C3COCC2CC(N2C[C@@H]4[C@H](C2)[C@H]4C(=O)N(C)C(C)C)C3)n1 (single isomer, unassigned; isomer 2) [12-22 Isomer 2] |  | 
 |  |  |  | (132) % |  |  |  | (30) % | (13) % | <4.70 | 7.59 | (25) % | <4.70 | 6.92 | CCN(CC)C(=O)[C@H]1[C@@H]2CN(C3CC4COCC(C3)N4c3nc(C(F)(F)F)no3)C[C@@H]21 (single isomer, unassigned; isomer 2) [12-23 Isomer 2] |  | 
 |  |  |  | (102) % |  |  |  | (83) % | (60) % | 5.33 | 7.58 | (25) % | <4.70 | 6.02 | CCN(C)C(=O)[C@H]1[C@@H]2CN(C3CC4CCC(C3)N4c3nc(C)no3)C[C@@H]21 (single isomer, unassigned; isomer 2) [12-24 Isomer 2] |  | 

— patent US10858352B2, “Pharmaceutical compounds” (Heptares Therapeutics Limited, priority 2018, dated 2020)
